Article PMC8052528 (Protein & Cell, 2021)

What was measured:
[1] = Phase 1 and Phase 2 clinical trials; ref Satoh et al., 2009; Kelly et al., 2013; cited from earlier work
SARS-CoV-2 = format: cell-based

Row | Compound | tolerability in humans [1] | intracellular NP level versus control group (10 μmol/L chloroquine) (SARS-CoV-2)
1 | COCCn1c2c([n+](Cc3cnccn3)c1C)C(=O)c1ccccc1C2=O [YM155] | well tolerated | 
2 | C[C@H]1COC2=C1C(=O)C(=O)c1c2ccc2c1CCCC2(C)C [cryptotanshinone] |  | comparable NP levels with the control group
3 | Cc1coc2c1C(=O)C(=O)c1c-2ccc2c(C)cccc12 [tanshinone I] |  | comparable NP levels with the control group
